Measured values: PubChem BioAssay (NCI)
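Values below derive from 48-hour exposures of cells grown in 96-well plates, with endpoints linearly interpolated between the two concentrations bracketing the appropriate inhibition level. TGI marks complete inhibition of growth.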

Key:
Experiment in all cases: NCI tumour cell line growth inhibition, 48 h
ACHN renal = tested on: ACHN renal
SF-295 CNS = tested on: SF-295 CNS
UO-31 renal = tested on: UO-31 renal
U251 CNS = tested on: U251 CNS
MALME-3M melanoma = tested on: MALME-3M melanoma
HS 578T breast = tested on: HS 578T breast
SR leukemia = tested on: SR leukemia
OVCAR-4 ovarian = tested on: OVCAR-4 ovarian
RXF 393 renal = tested on: RXF 393 renal
COLO 205 colon = tested on: COLO 205 colon
A549 NSCLC = tested on: A549 NSCLC
HOP-62 NSCLC = tested on: HOP-62 NSCLC
SK-MEL-5 melanoma = tested on: SK-MEL-5 melanoma
OVCAR-3 ovarian = tested on: OVCAR-3 ovarian
KM12 colon = tested on: KM12 colon
NCI-H460 lung = tested on: NCI-H460 lung
LOX IMVI melanoma = tested on: LOX IMVI melanoma
NCI-H522 lung = tested on: NCI-H522 lung
HCT-116 colon = tested on: HCT-116 colon
M14 melanoma = tested on: M14 melanoma
SK-MEL-2 melanoma = tested on: SK-MEL-2 melanoma
IGROV1 ovarian = tested on: IGROV1 ovarian
T-47D breast = tested on: T-47D breast
786-0 renal = tested on: 786-0 renal
BT-549 breast = tested on: BT-549 breast
UACC-62 melanoma = tested on: UACC-62 melanoma
SK-OV-3 ovarian = tested on: SK-OV-3 ovarian
HCT-15 colon = tested on: HCT-15 colon
SN12C renal = tested on: SN12C renal
MDA-MB-435 = tested on: MDA-MB-435
MDA-MB-231 breast = tested on: MDA-MB-231 breast
SW-620 colon = tested on: SW-620 colon
K-562 leukemia = tested on: K-562 leukemia
EKVX NSCLC = tested on: EKVX NSCLC
HOP-92 NSCLC = tested on: HOP-92 NSCLC
HT29 colon = tested on: HT29 colon
PC-3 prostate = tested on: PC-3 prostate
MCF7 breast = tested on: MCF7 breast
NCI-H23 lung = tested on: NCI-H23 lung
UACC-257 melanoma = tested on: UACC-257 melanoma
CAKI-1 renal = tested on: CAKI-1 renal
SNB-19 CNS = tested on: SNB-19 CNS
A498 renal = tested on: A498 renal
MDA-N = tested on: MDA-N
SF-539 CNS = tested on: SF-539 CNS
NCI/ADR-RES ovarian = tested on: NCI/ADR-RES ovarian
NCI-H226 lung = tested on: NCI-H226 lung
SK-MEL-28 melanoma = tested on: SK-MEL-28 melanoma
SNB-75 CNS = tested on: SNB-75 CNS
OVCAR-8 ovarian = tested on: OVCAR-8 ovarian
TK-10 renal = tested on: TK-10 renal
OVCAR-5 ovarian = tested on: OVCAR-5 ovarian
SF-268 CNS = tested on: SF-268 CNS
MOLT-4 leukemia = tested on: MOLT-4 leukemia
RPMI-8226 leukemia = tested on: RPMI-8226 leukemia

Measured: TGI

c1ccc(CNCCN2CCNCC2)nc1
> 100 µM: all assays above
